Source: ChEMBL document CHEMBL1154040, “Synthesis and evaluation of novel F-18 labeled fluoroarylvaline derivatives: potential PET imaging agents for tumor detection” (Bioorg Med Chem Lett, 2009)

Columns and labels:
[1] = tested on: Kidney; assay: Biodistribution in S180 tumor-bearing KM mouse kidney assessed per gram of tissue at 240 to 370 kBq, iv after 30 mins; assay type: ADME, organism-based; conditions: in vivo, 0.5 h
[2] = tested on: Liver; assay: Biodistribution in S180 tumor-bearing KM mouse liver assessed per gram of tissue weight at 240 to 370 kBq, iv after 15 mins; assay type: ADME, organism-based; conditions: in vivo, 0.25 h
[3] = tested on: Lung; assay: Biodistribution in S180 tumor-bearing KM mouse lung assessed per gram of tissue at 240 to 370 kBq, iv after 120 mins; assay type: ADME, organism-based; conditions: in vivo, 2 h
[4] = Ratio of drug level in S180 tumor to muscleKM mouse at 240 to 370 kBq, iv after 120 mins; assay type: ADME, organism-based, KM; conditions: in vivo, 2 h
[5] = tested on: Liver; assay: Biodistribution in S180 tumor-bearing KM mouse liver assessed per gram of tissue at 240 to 370 kBq, iv after 120 mins; assay type: ADME, organism-based; conditions: in vivo, 2 h
[6] = Biodistribution in S180 tumor present in KM mouse assessed per gram of tissue at 240 to 370 kBq, iv after 5 mins; assay type: ADME, organism-based, Neoplasm; conditions: in vivo
[7] = tested on: Lung; assay: Biodistribution in S180 tumor-bearing KM mouse lung assessed per gram of tissue at 240 to 370 kBq, iv after 30 mins; assay type: ADME, organism-based; conditions: in vivo, 0.5 h
[8] = tested on: Brain; assay: Biodistribution in S180 tumor-bearing KM mouse brain assessed per gram of tissue at 240 to 370 kBq, iv after 30 mins; assay type: ADME, organism-based; conditions: in vivo, 0.5 h
[9] = tested on: Spleen; assay: Biodistribution in S180 tumor-bearing KM mouse spleen assessed per gram of tissue at 240 to 370 kBq, iv after 120 mins; assay type: ADME, organism-based; conditions: in vivo, 2 h
[10] = Biodistribution in S180 tumor present in KM mouse assessed per gram of tissue at 240 to 370 kBq, iv after 120 mins; assay type: ADME, organism-based, Neoplasm; conditions: in vivo, 2 h
[11] = Ratio of drug level in S180 tumor to muscleKM mouse at 240 to 370 kBq, iv after 5 mins; assay type: ADME, organism-based, KM; conditions: in vivo
[12] = tested on: Brain; assay: Biodistribution in S180 tumor-bearing KM mouse brain assessed per gram of tissue at 240 to 370 kBq, iv after 60 mins; assay type: ADME, organism-based; conditions: in vivo, 1 h
[13] = tested on: Spleen; assay: Biodistribution in S180 tumor-bearing KM mouse spleen assessed per gram of tissue at 240 to 370 kBq, iv after 5 mins; assay type: ADME, organism-based; conditions: in vivo
[14] = tested on: Brain; assay: Biodistribution in S180 tumor-bearing KM mouse brain assessed per gram of tissue at 240 to 370 kBq, iv after 5 mins; assay type: ADME, organism-based; conditions: in vivo
[15] = Ratio of drug level in S180 tumor to muscleKM mouse at 240 to 370 kBq, iv after 60 mins; assay type: ADME, organism-based, KM; conditions: in vivo, 1 h
[16] = tested on: Brain; assay: Biodistribution in S180 tumor-bearing KM mouse brain assessed per gram of tissue at 240 to 370 kBq, iv after 120 mins; assay type: ADME, organism-based; conditions: in vivo, 2 h
[17] = tested on: Blood; assay: Biodistribution in S180 tumor-bearing KM mouse blood assessed per gram of tissue weight at 240 to 370 kBq, iv after 120 mins; assay type: ADME, organism-based; conditions: in vivo, 2 h
[18] = tested on: Lung; assay: Biodistribution in S180 tumor-bearing KM mouse lung assessed per gram of tissue at 240 to 370 kBq, iv after 5 mins; assay type: ADME, organism-based; conditions: in vivo
[19] = tested on: Spleen; assay: Biodistribution in S180 tumor-bearing KM mouse spleen assessed per gram of tissue at 240 to 370 kBq, iv after 15 mins; assay type: ADME, organism-based; conditions: in vivo, 0.25 h
[20] = Ratio of drug level in S180 tumor to brain KM mouse at 240 to 370 kBq, iv after 30 mins; assay type: ADME, organism-based; conditions: in vivo, 0.5 h
[21] = tested on: Liver; assay: Biodistribution in S180 tumor-bearing KM mouse liver assessed per gram of tissue at 240 to 370 kBq, iv after 60 mins; assay type: ADME, organism-based; conditions: in vivo, 1 h
[22] = tested on: Blood; assay: Biodistribution in S180 tumor-bearing KM mouse blood assessed per gram of tissue weight at 240 to 370 kBq, iv after 30 mins; assay type: ADME, organism-based; conditions: in vivo, 0.5 h
[23] = tested on: Kidney; assay: Biodistribution in S180 tumor-bearing KM mouse kidney assessed per gram of tissue at 240 to 370 kBq, iv after 120 mins; assay type: ADME, organism-based; conditions: in vivo, 2 h
[24] = Ratio of drug level in S180 tumor to blood in KM mouse at 240 to 370 kBq, iv after 5mins; assay type: ADME, organism-based; conditions: tumour
[25] = Ratio of drug level in S180 tumor to blood in KM mouse at 240 to 370 kBq, iv after 120 mins; assay type: ADME, organism-based; conditions: tumour, 2 h
[26] = Ratio of drug level in S180 tumor to brain KM mouse at 240 to 370 kBq, iv after 120 mins; assay type: ADME, organism-based; conditions: in vivo, 2 h
[27] = Ratio of drug level in S180 tumor to blood in KM mouse at 240 to 370 kBq, iv after 15mins; assay type: ADME, organism-based; conditions: tumour, 0.25 h
[28] = Ratio of drug level in S180 tumor to muscleKM mouse at 240 to 370 kBq, iv after 15 mins; assay type: ADME, organism-based, KM; conditions: in vivo, 0.25 h
[29] = tested on: Heart; assay: Biodistribution in S180 tumor-bearing KM mouse heart assessed per gram of tissue weight at 240 to 370 kBq, iv after 30 mins; assay type: ADME, organism-based; conditions: in vivo, 0.5 h
[30] = tested on: Spleen; assay: Biodistribution in S180 tumor-bearing KM mouse spleen assessed per gram of tissue at 240 to 370 kBq, iv after 60 mins; assay type: ADME, organism-based; conditions: in vivo, 1 h
[31] = tested on: Muscle tissue; assay: Biodistribution in S180 tumor-bearing KM mouse muscle assessed per gram of tissue at 240 to 370 kBq, iv after 60 mins; assay type: ADME, organism-based; conditions: in vivo, 1 h
[32] = tested on: Heart; assay: Biodistribution in S180 tumor-bearing KM mouse heart assessed per gram of tissue weight at 240 to 370 kBq, iv after 120 mins; assay type: ADME, organism-based; conditions: in vivo, 2 h
[33] = tested on: Blood; assay: Biodistribution in S180 tumor-bearing KM mouse blood assessed per gram of tissue weight at 240 to 370 kBq, iv after 15 mins; assay type: ADME, organism-based; conditions: in vivo, 0.25 h
[34] = tested on: Heart; assay: Biodistribution in S180 tumor-bearing KM mouse heart assessed per gram of tissue weight at 240 to 370 kBq, iv after 15 mins; assay type: ADME, organism-based; conditions: in vivo, 0.25 h
[35] = tested on: Kidney; assay: Biodistribution in S180 tumor-bearing KM mouse kidney assessed per gram of tissue at 240 to 370 kBq, iv after 5 mins; assay type: ADME, organism-based; conditions: in vivo
[36] = tested on: Heart; assay: Biodistribution in S180 tumor-bearing KM mouse heart assessed per gram of tissue weight at 240 to 370 kBq, iv after 60 mins; assay type: ADME, organism-based; conditions: in vivo, 1 h
[37] = Biodistribution in S180 tumor present in KM mouse assessed per gram of tissue at 240 to 370 kBq, iv after 15 mins; assay type: ADME, organism-based, Neoplasm; conditions: in vivo, 0.25 h
[38] = tested on: Heart; assay: Biodistribution in S180 tumor-bearing KM mouse heart assessed per gram of tissue weight at 240 to 370 kBq, iv after 5 mins; assay type: ADME, organism-based; conditions: in vivo
[39] = Biodistribution in S180 tumor present in KM mouse assessed per gram of tissue at 240 to 370 kBq, iv after 30 mins; assay type: ADME, organism-based, Neoplasm; conditions: in vivo, 0.5 h
[40] = tested on: Lung; assay: Biodistribution in S180 tumor-bearing KM mouse lung assessed per gram of tissue at 240 to 370 kBq, iv after 60 mins; assay type: ADME, organism-based; conditions: in vivo, 1 h
[41] = tested on: Liver; assay: Biodistribution in S180 tumor-bearing KM mouse liver assessed per gram of tissue weight at 240 to 370 kBq, iv after 5 mins; assay type: ADME, organism-based; conditions: in vivo
[42] = tested on: Lung; assay: Biodistribution in S180 tumor-bearing KM mouse lung assessed per gram of tissue at 240 to 370 kBq, iv after 15 mins; assay type: ADME, organism-based; conditions: in vivo, 0.25 h
[43] = tested on: Muscle tissue; assay: Biodistribution in S180 tumor-bearing KM mouse muscle assessed per gram of tissue at 240 to 370 kBq, iv after 120 mins; assay type: ADME, organism-based; conditions: in vivo, 2 h

Work on `CC(C)[C@H](NC(=O)c1ccc([N+](=O)[O-])cc1[18F])C(=O)O` yielded a Drug uptake [1] of 1.36 %ID, a Drug uptake [2] of 3.35 %ID and a Drug uptake [3] of 0.57 %ID. The tumor/muscle ratio [4] was 0.66, the Drug uptake [5] was 0.5 %ID and the Drug uptake [6] was 1.37 %ID. For the same compound, the Drug uptake [7] was 1.38 %ID, the Drug uptake [8] was 0.04 %ID and the Drug uptake [9] was 0.16 %ID. The Drug uptake [10] was 0.08 %ID, the tumor/muscle ratio [11] was 1.38 and the Drug uptake [12] was 0.03 %ID. For the same compound, the Drug uptake [13] was 1.04 %ID, the Drug uptake [14] was 0.15 %ID and the tumor/muscle ratio [15] was 1.74. It also gave a Drug uptake [16] of 0.01 %ID, a Drug uptake [17] of 0.06 %ID and a Drug uptake [18] of 5.04 %ID. The Drug uptake [19] was 0.6 %ID, the tumor/brain ratio [20] was 13.3 and the Drug uptake [21] was 0.77 %ID. It also gave a Drug uptake [22] of 0.24 %ID, a Drug uptake [23] of 0.3 %ID and a tumor/blood ratio [24] of 0.56. For the same compound, the tumor/blood ratio [25] was 1.3, the tumor/brain ratio [26] was 6.9 and the tumor/blood ratio [27] was 0.72. The tumor/muscle ratio [28] was 1.95, the Drug uptake [29] was 0.29 %ID and the Drug uptake [30] was 0.24 %ID. The Drug uptake [31] was 0.15 %ID, the Drug uptake [32] was 0.05 %ID and the Drug uptake [33] was 1.27 %ID. The Drug uptake [34] was 0.72 %ID, the Drug uptake [35] was 11.9 %ID and the Drug uptake [36] was 0.11 %ID. For the same compound, the Drug uptake [37] was 0.91 %ID, the Drug uptake [38] was 1.07 %ID and the Drug uptake [39] was 0.56 %ID. It also gave a Drug uptake [40] of 1.14 %ID, a Drug uptake [41] of 6.54 %ID and a Drug uptake [42] of 2.01 %ID. The Drug uptake [43] was 0.12 %ID.
`COC(=O)[C@@H](NC(=O)c1ccc([N+](=O)[O-])cc1[18F])C(C)C` gave a Drug uptake [1] of 3.8 %ID, a Drug uptake [2] of 8.6 %ID and a Drug uptake [3] of 0.25 %ID. It also gave a tumor/muscle ratio [4] of 0.54, a Drug uptake [5] of 0.14 %ID and a Drug uptake [6] of 2.78 %ID. The Drug uptake [7] was 1.31 %ID, the Drug uptake [8] was 0.28 %ID and the Drug uptake [9] was 0.05 %ID. It also gave a Drug uptake [10] of 0.31 %ID, a tumor/muscle ratio [11] of 1.94 and a Drug uptake [12] of 0.17 %ID. For the same compound, the Drug uptake [13] was 1.48 %ID, the Drug uptake [14] was 0.99 %ID and the tumor/muscle ratio [15] was 1.39. For the same compound, the Drug uptake [16] was 0.12 %ID, the Drug uptake [17] was 0.19 %ID and the Drug uptake [18] was 5.49 %ID. For the same compound, the Drug uptake [19] was 1.13 %ID, the tumor/brain ratio [20] was 7.06 and the Drug uptake [21] was 0.27 %ID. The Drug uptake [22] was 0.68 %ID, the Drug uptake [23] was 0.29 %ID and the tumor/blood ratio [24] was 0.9. For the same compound, the tumor/blood ratio [25] was 1.67, the tumor/brain ratio [26] was 2.61 and the tumor/blood ratio [27] was 0.94. For the same compound, the tumor/muscle ratio [28] was 1.48, the Drug uptake [29] was 0.4 %ID and the Drug uptake [30] was 0.31 %ID. It also gave a Drug uptake [31] of 0.69 %ID, a Drug uptake [32] of 0.08 %ID and a Drug uptake [33] of 2.18 %ID. The Drug uptake [34] was 0.6 %ID, the Drug uptake [35] was 17.9 %ID and the Drug uptake [36] was 0.19 %ID. It also gave a Drug uptake [37] of 2.06 %ID, a Drug uptake [38] of 1.35 %ID and a Drug uptake [39] of 1.97 %ID. It also gave a Drug uptake [40] of 0.31 %ID, a Drug uptake [41] of 15.9 %ID and a Drug uptake [42] of 2.57 %ID. For the same compound, the Drug uptake [43] was 0.58 %ID.
